Results reported in US20140235585A1, “SUBSTITUTED DIARYL DERIVATIVES AS SPHINGOSINE RECEPTOR MODULATORS” (ALLERGAN, INC., priority 2013, published 2014).

Target: T1, human S1P1 receptor (Homo sapiens, UniProt P21453)
T1 construct: expressed in transfected cells; membranes from cells stably expressing the S1P1 receptor
Test: GTP γ35S binding assay for S1P1 activity
Format: biochemical
Conditions: Activity potency: S1P1 receptor from GTP γ35S; membranes of cells stably expressing the S1P1 receptor; agonist-induced binding
Protocol: Compounds were tested for S1P1 activity using the GTP γ^35S binding assay. These compounds may be assessed for their ability to activate or block activation of the human S1P1 receptor in cells stably expressing the S1P1 receptor. GTP γ^35S binding was measured in the medium containing (mM) HEPES 25, pH 7.4, MgCl2 10, NaCl 100, dithitothreitol 0.5, digitonin 0.003%, 0.2 nM GTP γ^35S, and 5 μg membrane protein in a volume of 150 μl. Test compounds were included in the concentration range from 0.08 to 5,000 nM unless indicated otherwise. Membranes were incubated with 100 μM 5′-adenylylimmidodiphosphate for 30 min, and subsequently with 10 μM GDP for 10 min on ice. Drug solutions and membrane were mixed, and then reactions were initiated by adding GTP γ^35S and continued for 30 min at 25° C. Reaction mixtures were filtered over Whatman GF/B filters under vacuum, and washed three times with 3 mL of ice-cold buffer (HEPES 25, pH7.4, MgCl2 10 and NaCl 100). Filters were dried and mixed with scintillant, and counted for ^35S activity using a β-counter. Agonist-induced GTP γ^35S binding was obtained by subtracting that in the absence of agonist. Binding data were analyzed using a non-linear regression method. In case of antagonist assay, the reaction mixture contained 10 nM S1P in the presence of test antagonist at concentrations ranging from 0.08 to 5000 nM.

T1 sequence (P21453 whole entry): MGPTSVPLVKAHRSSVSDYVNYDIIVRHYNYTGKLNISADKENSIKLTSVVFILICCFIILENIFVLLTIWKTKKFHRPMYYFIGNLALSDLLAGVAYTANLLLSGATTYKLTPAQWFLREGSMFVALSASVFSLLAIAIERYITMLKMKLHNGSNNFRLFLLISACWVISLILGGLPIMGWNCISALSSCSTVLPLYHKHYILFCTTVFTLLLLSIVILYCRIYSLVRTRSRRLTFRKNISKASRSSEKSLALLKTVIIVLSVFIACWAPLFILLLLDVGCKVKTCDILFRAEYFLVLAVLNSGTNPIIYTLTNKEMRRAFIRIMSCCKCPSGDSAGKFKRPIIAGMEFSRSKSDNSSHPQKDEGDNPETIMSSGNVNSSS

| EC50 [nM] | SMILES |
| --- | --- |
| 31 | O=P(O)(O)CCCNCc1ccc(CC/N=c2\scc(-c3ccccc3)n2-c2ccccc2)cc1 [Compound 1, (3-{[4-(2-{[(2Z)-3,4-diphenyl-1,3-thiazol-2(3H)-ylidene]amino}ethyl)benzyl]amino}propyl)phosphonic acid] |
| 658 | O=C(O)CCNCc1ccc(CC/N=c2\scc(-c3ccccc3)n2-c2ccccc2)cc1 [Compound 2, 3-{[4-(2-{[(2Z)-3,4-diphenyl-1,3-thiazol-2(3H)-ylidene]amino}ethyl)benzyl]amino}propanoic acid] |
| 86 | O=P(O)(O)CCCNCc1ccc(CCSc2ncc(-c3ccccc3)n2-c2ccccc2)cc1 [Compound 3, {3-[(4-{2-[(1,5-diphenyl-1H-imidazol-2-yl)thio]ethyl}benzyl)amino]propyl}phosphonic acid] |
